Consider 3 compounds from publication PMC8304783, “Antiadhesive Properties of Imidazolium Ionic Liquids Based on (−)-Menthol Against Candida spp” (International Journal of Molecular Sciences, 2021).

Read-outs that look alike come from different tables or passages of the source.

Assay [1] concerns C. albicans B4. The experiment in a line: MIC90 and MFC towards clinical isolates. It is filed as cell-based. As to conditions: Candida albicans. How it is done:
(§1) Experiments were performed according to the Clinical and Laboratory Standards Institute (2008), 3rd ed. M27-A3 [51], with modifications described previously. Briefly, MICs were determined by serially diluting ILs in YPD medium in sterile 96-well plates (Sarstedt) and inoculating with fungal suspensions (final OD600 per well = 0.01). After incubation (48 h; 28 °C), the OD600 was measured (ASYS UVM 340 Biogenet). […] Each well was then replated on YPD agar and incubated for 5 days at 28 °C.
(§2) The effect of imidazolium ILs based on of (1R,2S,5R)‐(−)‐menthol was evaluated on clinical, fluconazole(FLC)‐resistant and FLC‐sensitive C. albicans isolates. C. albicans Gu4 and Gu5 strains were isolated from a patient before and after fluconazole administration, respectively.
(§3) Azole‐resistance of Gu5 origins in overexpression of CDR1 and CD R2. C. albicans B3 and B4 strains […]
(§4) Azole‐resistance of B4 results from overexpression of MDR1. The strains were generous gifts from Prof. S. Milewski (Gdańsk, Poland) and Prof. J. Morschhäuser (Wurzburg, Germany). They are originally referenced in: Franz, R., Ruhnke, M. & Morschhäuser, J. Molecular aspects of fluconazole resistance development in Candida albicans. Mycoses 42, 453–458, (1999).
(§5) Table S1 summarizes the minimal inhibitory and fungicidal concentration (MIC90 and MFC, respectively) values of ILs tested against the C. albicans isolates (for ILs structures see section 5.2. in the mai n text). No difference in case of MIC90 values between the strains was observed. However, MFC values were two‐fold lower for the compounds 1b and 2a in case of B3 and B4 isolates. The MFC value of the compound 1a wa s two‐fold higher on ly in ca se of Gu5 strain.
(§6) Table S1. Minimal inhibitory concentrations (MIC90; μM) and minimal fungicidal concentrations (MFC; μM) of ionic liquids (ILs ) or fluconazole (FLC) towards clinical C. albicans isolates.

Assay [2] concerns C. albicans Gu5. The assay is described as follows: MIC90 and MFC towards clinical isolates. It is filed as cell-based. As to conditions: Candida albicans. The procedure: as §1, §2, §3, §4, §5, §6
Assay [3] deals with C. albicans Gu4. The experiment in a line: MIC90 and MFC towards clinical isolates. The class given is cell-based. The settings on record: Candida albicans, clinical isolate Gu4 (FLC-sensitive); for MFC: read-out: Minimal fungicidal concentration (MFC); for MIC90: read-out: Minimal inhibitory concentration (MIC90). How it is done:
as §1, §2, §3, §4, §5, §6

In assay [4] the test system is C. albicans B3. The experiment in a line: MIC90 and MFC towards clinical isolates. It is filed as cell-based. The settings on record: Candida albicans, clinical isolate B3 (FLC-sensitive); for MFC: read-out: Minimal fungicidal concentration (MFC); for MIC90: read-out: Minimal inhibitory concentration (MIC90). The procedure:
as §1, §2, §3, §4, §5, §6

The subject of assay [5] is ALS5. The experiment in a line: Real time quantitative PCR, relative gene expression. The class given is cell-based, C. albicans. The settings on record: ILs 25 µM, 2 h; relative to untreated cells (100%). The procedure: (§7) Fungal adhesion to biomedical surfaces is strongly related to the structure of the cell wall, and the presence of adhesins (Als proteins) on the surface of the cell. In turn, the progression to biofilm formation is dependent on the ability of C. albicans to form hyphae. In conditions similar to those above (ILs conc. = 25 µM), we examined C. albicans cell wall integrity, its ability to form hyphae, and the level of ALS genes expression, encoding Als1 and Als5 adhesins (Figure 3). […] Despite some reduction, the result was not statistically significant (p = 0.12). On the other hand, after the treatment with IL 2a, the expression of ALS1 and ALS5 genes was reduced by 50 or 55%, respectively (Figure 3C). The results were statistically significant in both cases (p = 0.04 for either ALS gene). However, in case of compounds with alkyl substituents (1a and 1b), the reduction of gene expression was to a lesser degree. […] Despite observing a chain-length dependence, the results were not statistically significant (p = 0.07 for both ALS gene after treatment with 1b).
(§8) Figure 3 (A) C. albicans calcofluor white staining following a 2 h treatment with 1a,2a,1b ILs (conc. = 25 µM). Control experiment represents untreated calcofluor white-stained cells. Scale bar = 2.5 µm. (B) FBS-induced hyphae formation after 2 h treatment with 1a,2a,1b ILs (conc. = 25 µM). Control condition was C. albicans treated with FBS only. Scale bar = 10 µm. (C) Relative ALS1 and ALS5 gene expression in C. albicans following a 2 h treatment with 1a,2a,1b ILs (conc. = 25 µM). Gene expression levels are reported as means of 2^−∆∆CT values (n = 6) ± SD; normalized to 100% for untreated cells (control). Statistical analyses were performed by comparing expression under treatment with each IL to untreated cells. * p < 0.05.
(§9) YPD-grown C. albicans cells were pelleted, washed with PBS and treated with ILs (conc. = 25 µM) for 2 h at 37 °C. Next, the cells were pelleted, and concentrated (PBS; OD600 = 20). RNA was isolated using the Total RNA Mini Kit (A&A Biotechnology, Gdańsk, Poland). Synthesis of cDNA and calculation of gene expression levels were performed as previously described. The following gene-specific primers were used: ACT1_F (5′-TCCAGCTTTCTACGTTTCCA-3′), ACT1_R (5′-GTCAAGTCTCTACCAGCCAA-3′), ALS1_F (5′-TGTTGGTGTGACTACTTCCT-3′), ALS1_R (5′-TGT ACC ACT GTG TCA AT-3′), ALS5_F (5′-CTCCACTAGTTATGGGGATGT-3′) and ALS5_R (5′-TGAGGGAGAAATATAAGCGTCA-3′).

In assay [6] the test system is ALS1. The description is as above. The class given is cell-based, C. albicans. As to conditions: ILs 25 µM, 2 h; relative to untreated cells (100%). How it is done: as §7, §8, §9
Setting [7] is: B4, read-out: Minimal fungicidal concentration (MFC).
[8] abbreviates: B4, read-out: Minimal inhibitory concentration (MIC90).
The mark [9] stands for this setting: GU5, read-out: Minimal fungicidal concentration (MFC).
The mark [10] stands for this setting: GU5, read-out: Minimal inhibitory concentration (MIC90).

On to `CCCCCCCCCn1cc[n+](CO[C@@H]2C[C@H](C)CC[C@H]2C(C)C)c1` [1a, 1-[(1R,2S,5R)-(−)-menthoxymethyl]-3-nonylimidazolium chloride], for which the MFC came to 25 µM in assay [1] (clinical isolate B4 (FLC-resistant, MDR1 overexpression), read-out: Minimal fungicidal concentration (MFC)); 50 µM in assay [2] (clinical isolate Gu5 (FLC-resistant, CDR1/CDR2 overexpression), read-out: Minimal fungicidal concentration (MFC)); 25 µM in assay [3]; 25 µM in assay [4]. Besides, the MIC90 in assay [1] (clinical isolate B4 (FLC-resistant, MDR1 overexpression), read-out: Minimal inhibitory concentration (MIC90)) was determined as 12.5 µM; in assay [2] (clinical isolate Gu5 (FLC-resistant, CDR1/CDR2 overexpression), read-out: Minimal inhibitory concentration (MIC90)), 12.5 µM; in assay [3], 12.5 µM; in assay [4], 12.5 µM. Further, the “Reduction of ALS5 gene expression” value in assay [5] was 10%. Further, in assay [6], the “Reduction of ALS1 gene expression” value was 20%.
Consider `CCCCCCCCCOCn1cc[n+](CO[C@@H]2C[C@H](C)CC[C@H]2C(C)C)c1` [2a, 1-(1R,2S,5R)-(−)-menthoxymethyl-3-nonyloxymethylimidazolium chloride], for which the MFC worked out at 12.5 µM in assay [1] (setting [7]), 25 µM in assay [2] (setting [9]), 25 µM in assay [3] and 12.5 µM in assay [4]. Also, the MIC90 in assay [1] (setting [8]), in assay [2] (setting [10]), in assay [3] and in assay [4] was 12.5 µM each time. In addition, in assay [5], the “Reduction of ALS5 gene expression” value turned out to be 55%. Moreover, the “Reduction of ALS1 gene expression” value in assay [6] was found to be 50%.
Take `CCCCCCCCCCn1cc[n+](CO[C@@H]2C[C@H](C)CC[C@H]2C(C)C)c1` [1b, 3-decyl-1-[(1R,2S,5R)-(−)-menthoxymethyl]imidazolium chloride]: the MFC in assay [1] (setting [7]) stood at 25 µM; in assay [2] (setting [9]), 50 µM; in assay [3], 50 µM; in assay [4], 25 µM. Moreover, the MIC90 in assay [1] (setting [8]), in assay [2] (setting [10]), in assay [3] and in assay [4] was 25 µM throughout. The “Reduction of ALS5 gene expression” value in assay [5] is 40%. In addition, the “Reduction of ALS1 gene expression” value in assay [6] was 45%.
